# Results as given in article PMC4839570, “Novel Anthra[1,2-c][1,2,5]Thiadiazole-6,11-Diones as Promising Anticancer Lead Compounds: Biological Evaluation, Characterization & Molecular Targets Determination” (PLoS ONE, 2016).
# Where two headings read alike, the source gives them in different places.
# What was measured:
# [1] = tested on: EKVX; assay: NCI-60 cytotoxicity screen; assay type: cell-based
# [2] = tested on: OVCAR-8; assay: NCI-60 cytotoxicity screen; assay type: cell-based
# [3] = tested on: NCI-H460; assay: JFCR-39 cytotoxicity screen; assay type: cell-based
# [4] = tested on: DU-145; assay: NCI-60 cytotoxicity screen; assay type: cell-based
# [5] = tested on: KM-12; assay: JFCR-39 cytotoxicity screen; assay type: cell-based
# [6] = tested on: SK-OV-3; assay: JFCR-39 cytotoxicity screen; assay type: cell-based
# [7] = tested on: RXF 393; assay: NCI-60 cytotoxicity screen; assay type: cell-based
# [8] = tested on: MKN74; assay: JFCR-39 cytotoxicity screen; assay type: cell-based
# [9] = tested on: PC-3; assay: JFCR-39 cytotoxicity screen; assay type: cell-based
# [10] = tested on: MALME-3M; assay: NCI-60 cytotoxicity screen; assay type: cell-based
# [11] = tested on: OVCAR-4; assay: NCI-60 cytotoxicity screen; assay type: cell-based
# [12] = tested on: SNB-78; assay: JFCR-39 cytotoxicity screen; assay type: cell-based
# [13] = tested on: M14; assay: NCI-60 cytotoxicity screen; assay type: cell-based
# [14] = tested on: JFCR 39 human cancer cell lines; assay: JFCR-39 screen, means, ranges and selectivity over panels; assay type: cell-based; details: for GI50: Homo sapiens
# Experimental: Both NSC745885 and NSC757963 satisfied the pre-determined threshold inhibition criteria of the NCI-60 One-Dose Screening, so they were tested against the panels of 60 cancer cell lines of NCI (NCI-60) and 39 cancer cell lines of JFCR (JFCR-39), each cell line was tested at five small doses of our compounds. Results are expressed as the 50% growth inhibition concentration (GI50), the 50% lethal concentration (LC50) and the total growth inhibition (TGI), compared to the values of untreated control cells.
# To characterize the selectivity of NSC745885 and NSC757963 further among the different types of cancer, we determined their selectivity ratios towards each cell line subpanel used in the cytotoxicity experiments. […] The promising activity of this compound is evident from the small mean GI50 values. […] The strongest activity was towards the leukemia subpanel and the least one was towards the colon cancer subpanel. […] The strongest activity was towards the melanoma subpanel and the least one was towards the colon cancer subpanel.
# All cell lines were published before.
# [15] = tested on: NCI-H226; assay: NCI-60 cytotoxicity screen; assay type: cell-based
# [16] = tested on: COLO 205; assay: NCI-60 cytotoxicity screen; assay type: cell-based
# [17] = tested on: SK-OV-3; assay: NCI-60 cytotoxicity screen; assay type: cell-based
# [18] = tested on: UACC-257; assay: NCI-60 cytotoxicity screen; assay type: cell-based
# [19] = tested on: SNB-75; assay: JFCR-39 cytotoxicity screen; assay type: cell-based
# [20] = tested on: HT-29; assay: JFCR-39 cytotoxicity screen; assay type: cell-based
# [21] = tested on: SW-620; assay: NCI-60 cytotoxicity screen; assay type: cell-based
# [22] = tested on: OVCAR-3; assay: cells; details: Homo sapiens, OVCAR-3, read-out: mean log10 of the GI50 values (converted)
# [23] = tested on: K-562; assay: NCI-60 cytotoxicity screen; assay type: cell-based; details: Homo sapiens, K562, Fig 7, read-out: mean log10 of the GI50 values (converted)
# [24] = tested on: SF-295; assay: JFCR-39 cytotoxicity screen; assay type: cell-based
# [25] = Homo sapiens, Fig 7, read-out: mean log10 of the GI50 values (converted)
# [26] = Homo sapiens, five-dose, read-out: GI50
# [27] = Homo sapiens, five-dose, read-out: LC50 (the source's name)
# [28] = Homo sapiens, read-out: LC50 (the source's name)
smiles,measurement,setting,value
O=C1c2ccccc2C(=O)c2c1cc(Cl)c1nsnc21 [NSC757963],GI50,[1]; [25],10.5 µM
same,GI50,[1]; [26],11 µM
same,CC50,[1]; [27],48.7 µM
same,TGI,[1]; five-dose,23.2 µM
same,GI50,[2]; [25],1.32 µM
same,GI50,[2]; [26],2.39 µM
same,CC50,[2]; [27],> 100 µM
same,TGI,[2]; five-dose,5.19 µM
same,TGI,[3],26.0 µM
same,GI50,[3]; Homo sapiens,10 µM
same,CC50,[3]; [28],64 µM
same,GI50,[4]; [25],14.1 µM
same,GI50,[4]; [26],14.2 µM
same,CC50,[4]; [27],52.2 µM
same,TGI,[4]; five-dose,27.2 µM
same,TGI,[5],8.4 µM
same,GI50,"[5]; Homo sapiens, KM12",3 µM
same,CC50,"[5]; Homo sapiens, KM12, read-out: LC50 (the source's name)",36 µM
same,TGI,[6],14.0 µM
same,GI50,[6]; Homo sapiens,3.2 µM
same,CC50,[6]; [28],38 µM
same,GI50,"[7]; Homo sapiens, RXF393, Fig 7, read-out: mean log10 of the GI50 values (converted)",1.86 µM
same,GI50,[7]; [26],2.17 µM
same,CC50,[7]; [27],27.1 µM
same,TGI,[7]; five-dose,7.21 µM
same,TGI,[8],4.2 µM
same,GI50,"[8]; Homo sapiens, MKN-74",2.1 µM
same,CC50,"[8]; Homo sapiens, MKN-74, read-out: LC50 (the source's name)",8.4 µM
same,TGI,[9],3.2 µM
same,GI50,[9]; Homo sapiens,1.6 µM
same,CC50,[9]; [28],6.5 µM
same,GI50,[10]; [25],12.6 µM
same,GI50,[10]; [26],15.9 µM
same,CC50,[10]; [27],59.1 µM
same,TGI,[10]; five-dose,30.7 µM
same,GI50,[11]; [25],1.66 µM
same,GI50,[11]; [26],1.46 µM
same,CC50,[11]; [27],5.5 µM
same,TGI,[11]; five-dose,2.83 µM
same,TGI,[12],4.1 µM
same,GI50,[12]; Homo sapiens,2.2 µM
same,CC50,[12]; [28],7.9 µM
same,GI50,[13]; [25],15.1 µM
same,GI50,[13]; [26],17 µM
same,CC50,[13]; [27],59.7 µM
same,TGI,[13]; five-dose,31.9 µM
same,selectivity ratios of the JFCR subpanels (for NSC745885 except melanoma),[14],less than 3
same,GI50,"[14]; JFCR Breast Cancer, read-out: Mean GI50 of subpanel",1.72 µM
same,GI50,"[14]; JFCR CNS Cancer, read-out: Mean GI50 of subpanel",2 µM
same,GI50,"[14]; JFCR Colon Cancer, read-out: Mean GI50 of subpanel",5.94 µM
same,GI50,"[14]; JFCR Lung Cancer, read-out: Mean GI50 of subpanel",5.86 µM
same,GI50,"[14]; JFCR Melanoma, read-out: Mean GI50 of subpanel",1.9 µM
same,GI50,"[14]; JFCR Ovarian Cancer, read-out: Mean GI50 of subpanel",2.08 µM
same,GI50,"[14]; JFCR Prostate Cancer, read-out: Mean GI50 of subpanel",2.05 µM
same,GI50,"[14]; JFCR Renal Cancer, read-out: Mean GI50 of subpanel",1.75 µM
same,GI50,"[14]; JFCR Stomach Cancer, read-out: Mean GI50 of subpanel",1.97 µM
same,GI50,"[14]; all JFCR subpanels, read-out: mean GI50 values of the JFCR subpanels, range",1.72 to 5.9 µM
same,GI50,"[14]; equivalent to MG-MID, read-out: Mean GI50 of all JFCR-39 cell line panels",3.15 µM
same,GI50,"[14]; five-dose, read-out: JFCR-39 GI50 values, range over cell lines",1 to 21 µM
same,Selectivity ratio,[14]; JFCR Breast Cancer,1.83
same,Selectivity ratio,[14]; JFCR CNS Cancer,1.58
same,Selectivity ratio,[14]; JFCR Colon Cancer,0.53
same,Selectivity ratio,[14]; JFCR Lung Cancer,0.54
same,Selectivity ratio,[14]; JFCR Melanoma,1.66
same,Selectivity ratio,[14]; JFCR Ovarian Cancer,1.52
same,Selectivity ratio,[14]; JFCR Prostate Cancer,1.54
same,Selectivity ratio,[14]; JFCR Renal Cancer,1.8
same,Selectivity ratio,[14]; JFCR Stomach Cancer,1.6
same,GI50,[15]; [25],16.2 µM
same,LC50 (concentration killing 50% of cells),"[15]; Homo sapiens, five-dose",53.9 µM
same,GI50,[15]; [26],14.9 µM
same,TGI,[15]; five-dose,28.3 µM
same,GI50,"[16]; Homo sapiens, COLO205, Fig 7, read-out: mean log10 of the GI50 values (converted)",14.1 µM
same,GI50,[16]; [26],16.9 µM
same,CC50,[16]; [27],57.9 µM
same,TGI,[16]; five-dose,31.2 µM
same,GI50,[17]; [25],13.2 µM
same,GI50,[17]; [26],17.8 µM
same,CC50,[17]; [27],58 µM
same,TGI,[17]; five-dose,32.1 µM
same,GI50,[18]; [25],7.76 µM
same,GI50,[18]; [26],14.5 µM
same,CC50,[18]; [27],53.5 µM
same,TGI,[18]; five-dose,27.8 µM
same,TGI,[19],3.8 µM
same,GI50,[19]; Homo sapiens,2.1 µM
same,CC50,[19]; [28],6.8 µM
same,TGI,[20],45.0 µM
same,GI50,[20]; Homo sapiens,21 µM
same,CC50,[20]; [28],98 µM
same,GI50,[21]; [25],2.51 µM
same,GI50,[21]; [26],2.87 µM
same,CC50,[21]; [27],58.7 µM
same,TGI,[21]; five-dose,10.4 µM
same,GI50,[22],1.86 µM
same,GI50,[23],0.759 µM
same,TGI,[24],3.5 µM
same,GI50,[24]; Homo sapiens,1.9 µM
same,CC50,[24]; [28],6.5 µM
